Laboratory results from ChEMBL document CHEMBL4350983, “Combining structure- and property-based optimization to identify selective FLT3-ITD inhibitors with good antitumor efficacy in AML cell inoculated mouse xenograft model” (Eur J Med Chem, 2019).

How the values were obtained:
[1] = Tmax in Sprague-Dawley rat at 5 mg/kg, po measured up to 24 hrs by LC-MS/MS analysis; assay type: ADME, organism-based; conditions: in vivo
[2] = Mean residence time (0 to t) in Sprague-Dawley rat at 5 mg/kg, po measured up to 24 hrs by LC-MS/MS analysis; assay type: ADME, organism-based; conditions: in vivo
[3] = Oral bioavailability in Sprague-Dawley rat at 5 mg/kg measured up to 24 hrs by LC-MS/MS analysis; assay type: ADME, organism-based; conditions: in vivo
[4] = AUC (0 to infinity) in Sprague-Dawley rat at 1 mg/kg, iv measured up to 24 hrs by LC-MS/MS analysis; assay type: ADME, organism-based; design: dose 1 mg/kg, time infinity, route intravenous; conditions: in vivo
[5] = Half-life in Sprague-Dawley rat at 1 mg/kg, iv measured up to 24 hrs by LC-MS/MS analysis; assay type: ADME, organism-based; conditions: in vivo
[6] = AUCt in Sprague-Dawley rat at 1 mg/kg, iv measured up to 24 hrs by LC-MS/MS analysis; assay type: ADME, organism-based; design: dose 1 mg/kg, time < 24 hr, route intravenous; conditions: in vivo
[7] = rat, microsomes, 0.25 h, 1 µM
[8] = AUC (0 to infinity) in Sprague-Dawley rat at 5 mg/kg, po measured up to 24 hrs by LC-MS/MS analysis; assay type: ADME, organism-based; design: dose 5 mg/kg, route oral, time infinity; conditions: in vivo
[9] = Apparent clearance in Sprague-Dawley rat at 5 mg/kg, po measured up to 24 hrs by LC-MS/MS analysis; assay type: ADME, organism-based; conditions: in vivo, read-out: CL(app) (converted)
[10] = Cmax in Sprague-Dawley rat at 1 mg/kg, iv measured up to 24 hrs by LC-MS/MS analysis; assay type: ADME, organism-based; design: dose 1 mg/kg, route intravenous; conditions: in vivo
[11] = AUCt in Sprague-Dawley rat at 5 mg/kg, po measured up to 24 hrs by LC-MS/MS analysis; assay type: ADME, organism-based; design: time < 24 hr, dose 5 mg/kg, route oral; conditions: in vivo
in vitro [12] = conditions: rat, liver microsomes
[13] = Cmax in Sprague-Dawley rat at 5 mg/kg, po measured up to 24 hrs by LC-MS/MS analysis; assay type: ADME, organism-based; design: dose 5 mg/kg, route oral; conditions: in vivo
[14] = human, microsomes, 0.25 h, 1 µM
[15] = Half-life in Sprague-Dawley rat at 5 mg/kg, po measured up to 24 hrs by LC-MS/MS analysis; assay type: ADME, organism-based; conditions: in vivo
in vitro [16] = conditions: human, liver microsomes
[17] = Mean residence time (0 to t) in Sprague-Dawley rat at 1 mg/kg, iv measured up to 24 hrs by LC-MS/MS analysis; assay type: ADME, organism-based; conditions: in vivo
[18] = Apparent volume of distribution in Sprague-Dawley rat at 1 mg/kg, iv measured up to 24 hrs by LC-MS/MS analysis; assay type: ADME, organism-based; conditions: in vivo, read-out: Vz
[19] = Apparent volume of distribution in Sprague-Dawley rat at 5 mg/kg, po measured up to 24 hrs by LC-MS/MS analysis; assay type: ADME, organism-based; conditions: in vivo
[20] = Apparent clearance in Sprague-Dawley rat at 1 mg/kg, iv measured up to 24 hrs by LC-MS/MS analysis; assay type: ADME, organism-based; conditions: in vivo, read-out: CL(app) (converted)

CN1CCC(Nc2ccc(C(=O)Nc3cc(-c4ccc5c(c4)OCO5)n[nH]3)cc2)CC1
Tmax [1]: 2.83 h
MRT last at 24 h [2]: 5.9 h
bioavailability [3]: 22.8%
AUC(0-inf) [4]: 161 ng·h/mL
half-life [5]: 1.96 h
AUC(0-t) at 24 h [6]: 152 ng·h/mL
CLH [7]: 0.168 mL/min/kg
AUC(0-inf) [8]: 194 ng·h/mL
CL/F [9]: 445 mL/min/kg
Cmax [10]: 205 ng/mL
AUC(0-t) at 24 h [11]: 173 ng·h/mL
half-life at 0.25 h, 1 µM (in vitro [12]): 8.27 min
Cmax [13]: 27 ng/mL
CLH [14]: 0.0118 mL/min/kg
half-life [15]: 3.07 h
half-life at 0.25 h, 1 µM (in vitro [16]): 1.95 h
MRT last at 24 h [17]: 2.75 h
Vd [18]: 18.2 L/kg
Vz [19]: 105.05 L/kg
clearance [20]: 110 mL/min/kg
